From US11401306B2, “HPV16 non HLA-restricted t-cell vaccines, compositions and methods of use thereof” (priority 2016, dated 2022)

Legend:
Type in all cases: in vivo
TC-1 tumor = TC-1 tumor regression screening of peptides in C57/B6 mice; set-up: key: Positive: a positive T-cell response was a T-cell response that resulted in regression of the tumor; conditions: TC-1 tumors in C57/B6 mice, vaccinated day 7, peptide alone or with cationic lipid
Excerpt: (§1) Sequence selection was accomplished herein using both tumor regression studies in C57/B6 mice, and interferon-gamma ELISPOT studies in HLA-A2 humanized transgenic mice. […] In the HLA-A2 mouse model ELISPOT study, at least 20 spots per million splenocytes was regarded to be a positive response.
This example illustrates the evaluation or screening of several HPV16 E7 peptides in the TC-1 mouse tumor regression model for their effective processing and presentation of the key epitopes leading to HPV-specific T-cell induction and subsequent tumor regression.
In the tumor regression screening studies mice were implanted with 100,000 TC-1 cells on day 0. On day 7, once the tumors were well established the mice were vaccinated with the specific peptide sequences, either formulated alone or in combination with cationic lipids such as DOTMA, DOEPC or R-DOTAP to facilitate up-take and presentation. In these studies, the vaccine contained the selected peptide at a concentration of 0.1-3.0 mg/mL and cationic liposomes at a concentration of 0.2-3.0 mg/mL. In the cases where the peptide sequences were lipidated by attaching a palmitoyl chain, the peptides were simply mixed with the cationic liposomes prior to vaccination. In the case of the non-lipidated peptides, the liposomes were made and peptides encapsulated by traditional thin film liposome preparation methods (F Szoka, and D Papahadjopoulos, Comparative Properties and Methods of Preparation of Lipid Vesicles (Liposomes), Annual Review of Biophysics and Bioengineering, Vol. 9:467-508, 1980). Other methods well known to those skilled in the art may also have been used.
A sample tumor regression plot showing results for peptides corresponding to SEQ ID NO: 1 (blank square), SEQ ID NOS: 7, 8, 31 32 and 31 (solid black circle), SEQ ID NO: 7 (blank circle), and SEQ ID NO: 8 (solid black triangle) is shown in FIG. 3.

[1] = tested on: HPV-specific T-cell response (splenocytes); assay: IFN-g ELISPOT on splenocytes of vaccinated humanized HLA-A2 transgenic mice
Excerpt: as §1
This example highlights the approach to evaluating T-cell responses using ELISPOT studies in humanized HLA-A2 transgenic mice. In these studies, the vaccine contained the selected peptide at a concentration of 0.1-3.0 mg/mL and cationic liposomes when used, at a concentration of 0.2-3.0 mg/mL. Humanized HLA-A2 transgenic mice having components of the human immune system capable of recognizing human antigens were vaccinated on day 0 and day 7 with 100 uL of the vaccine. On day 14 the mice were sacrificed and HPV-specific immune response evaluated by interferon-gamma ELISPOT using standard approaches with the splecocytes from the mice (4-8 per group). The splenocytes were stimulated with the specified CD8+ T-cell epitope peptides or the long multi-epitope peptides specified in Table 2. The number of IFN-g spots per million cells is listed for the specified examples. […] The ability of the humanized transgenic mice to successfully generate a T-cell immune response (>20 spots) when stimulated with each of the long multi-epitope peptides as well as short single epitope peptides confirms that the selected peptides are effectively processed and presented to T-cells. In these studies, un-stimulated splenocytes and splenocytes stimulated with irrelevant peptides were both used together as negative controls in every assay. For the positive control in the assay ConA was used.
The present study was performed to evaluate the effect of chemical modification of select peptides on immunogenicity and their ability to be processed, presented and to prime human CD8+ HPV-specific T-cell responses. Peptides corresponding to SEQ ID NO: 23 and 25 contain cysteines which upon oxidation lead to the formation of dimers and other multimers. Two vaccine formulations were prepared containing peptides corresponding to SEQ ID NO: 23 and 25.
In Formulation A: Both peptides were monomeric with high purity confirmed by HPLC analysis. The vaccine contained 1.5-1.6 mg/mL of each peptide.
In Formulation B: Significant oxidation and multimer formation of both peptides was confirmed by HPLC analysis.
Both formulations were mixed 1:1 with 5.8 mg/mL of R-DOTAP prior to vaccination.
The immunogenicity of the peptides was compared as described in the above examples in 10 HLA-A2 mice per formulation by evaluating the ability to induce CD8+ T-cells. ELISPOT studies were performed as described above.

[2] = tested on: HPV-specific CD8+ T-cell induction (splenocytes); assay: ELISPOT in normal C57/B6 mice, peptide with other cationic lipids; conditions: stimulated with RAHYNIVTF (SEQ ID NO: 1)
Description: To determine if the identified long HPV16 peptides are compatible with other cationic lipids besides DOTAP, the peptide corresponding to SEQ ID NO: 26 was used as the model peptide in combination with two other cationic lipids DOTMA and DOEPC. To evaluate the ability of the peptides to effectively undergo processing and presentation, in the presence of both cationic lipids, an ELISPOT study was conducted using normal C57/B6 mice. ELISPOT studies were performed as described above and utilized to determine effective CD8+ T-cell induction.
In formulation 1, 1.35 mg/mL of DOTMA was mixed 1:1 v/v with 0.5 mg/mL of the peptide corresponding to SEQ ID NO: 26.
In formulation 2, 1.67 mg/mL of DOEPC was missed 1:1 v/v with 0.5 mg/mL of the peptide corresponding to SEQ ID NO: 26.
For each formulation 4 mice were vaccinated on Day 0 and Day 7. On Day 14 the mice were scarified and the splenocytes utilized in the ELISPOT study.

PalmKSS GQAEPDRAHYNIVTF [SEQ ID NO: 26]
Immune Response, Method: tumor regression (TC-1 tumor): Positive tumor regression | Immune Response, Method: ELISPOT ([1]; HLA-A2 humanized transgenic mice, IFN-gamma ELISPOT): Positive, ELISPOT (at least 20 spots per million splenocytes was regarded to be a positive response) | ELISPOT result Av spots/10^6 cells ([1]; splenocytes stimulated with GQAEPDRAHYNIVTF (SEQ ID NO: 5)): 1,544 spots/10^6 cells | ELISPOT result Av spots/10^6 cells ([1]; splenocytes stimulated with RAHYNIVTF (SEQ ID NO: 1)): 1,552 spots/10^6 cells | ELISPOT result Av spots/10^6 cells ([2]; formulated with DOEPC (formulation 2)): 243 spots/10^6 cells | ELISPOT result Av spots/10^6 cells ([2]; formulated with DOTMA (formulation 1)): 988 spots/10^6 cells
